# Laboratory results as given in patent US11291666B2, “Uses” (INTRA-CELLULAR THERAPIES, INC., priority 2016, dated 2022).
# Entries after “also recorded” stand apart in the source; their conditions may differ.
# What was measured:
# BV2 cells [1] = assay: Quantitative PCR of inflammatory cytokine mRNA in LPS-treated BV2 cells; type: cell-based, mouse
# Method: Levels of IL1β are measured using quantitative PCR of IL1β mRNA. IL1β is considered a marker of inflammation. Results are depicted in FIG. 2 (RQ: relative quantification of changes in gene expression in treated versus control samples; ***p<0.01 vs control, √p<0.01 vs LPS alone; ANOVA with Newman-Keuls post-hoc test).
# BV2 cells are pretreated with compound, ITI-214 or rolipram, a PDE4 inhibitor, then stimulated with 50 ng/ml LPS for 4 hours. Expression levels of TNF, IL1β, Ccl2, and IL6 are measured. Normalized mRNA levels are shown as change from vehicle (ΔΔCt) and compared using a one-way ANOVA. […] The mRNA transcripts for TNF, IL1β, and Ccl2—three of the four cytokines studied in vivo—were elevated in BV2 cells treated with 50 ng/ml LPS.
# (§1) The test compound is added first, the LPS is added one hour later, and the cells and/or media are harvested at five hours from commencement of the experiment.
# (§2) RTqPCR: RNA from BV2 cells purified using RNeasyKit (Qiagen) and from mouse tissue using TRIzol (Ambion). TaqMan primer-probe assays from Thermo Fisher. mRNA levels for all conditions are normalized to GAPDH and to vehicle control (ΔΔCt). Data are analyzed statistically using one-way ANOVA with the Bonferroni post-test for multiple comparisons.
# [2] = tested on: IL1β mRNA in the hippocampus; assay: IL1β expression in hippocampus in vivo after LPS (quantitative PCR); conditions: mice; LPS 2 mg/kg s.c.; 10 mg/kg i.p.; six hours post injection; FIG. 3
# Method: At six hours post injection, levels of IL1β in the hippocampus are measured via quantitative PCR of IL1β mRNA. IL1β is considered a marker of inflammation. Data are presented in FIG. 3 (***p<0.01 vs LPS alone, ANOVA with Newman-Keuls post-hoc test).
# BV2 cells [3] = assay: LPS-induced TNFα release from BV2 cells (ELISA); type: cell-based, mouse; conditions: 50 ng/ml LPS stimulation, FIG. 5
# Method: TNFα release: TNFα levels are measured in BV2 conditioned media and normalized to cell protein levels. Inhibition of LPS-induced TNFα release from BV2 cells is depicted in FIG. 5.
# as §1
# TNFαELISA: Thermo Fisher mouse TNFα colorimetric, sandwich ELISA kit. Interpolatee values from standard curve. Dose response is fit to a 4-parameter logistic curve.
# [4] = tested on: inflammatory gene expression in mouse striatum; assay: Inflammatory gene expression in mouse striatum after LPS (Q-PCR); type: in vivo
# Method: as §2
# The results are based upon an evaluation of samples using Q-PCR.
# Data from a further experiment measuring the effect of PDE1 inhibition on inflammatory gene expression in mouse striatum is depicted in FIG. 7. […] Striatal tissue is isolated and flash frozen, and RNA is extracted. Measurements from RT-qPCR are shown as log 2 fold change (2ΔΔCt). n=4 *p<0.05, **p<0.01, ***p<0.001, ****p<0.0001.
# Data from yet another experiment measuring the effect of PDE1 inhibition on inflammatory gene expression in mouse striatum is depicted in FIG. 8. […] Striatal tissue is analyzed for mRNA levels of TNF, IL1β, Ccl2, and IL6. Expression levels are shown as change in Q-PCR signal from vehicle (ΔΔCt) and compared using an ANOVA. * p<0.05, **p<0.01, ***p<0.001.
# C57Bl/6 mice = assay: Chronic unpredictable stress (CUS) model, inflammatory markers and depression-like behaviors; type: in vivo, mouse; conditions: 10 mg/kg i.p. daily
# Description: This experiment compares the impact of chronic stress on the brain cytokine/chemokine profile in wild type mice vs PDE1B conditional knockout mice.
# PDE1B conditional knockout mice are described in Siuciak J A, et al. “Behavioral and neurochemical characterization of mice deficient in the phosphodiesterase-1B (PDE1B) enzyme.” Neuropharmacology. 2007 July; 53(1):113-24. Protocols for CUS and other models of chronic stress are described in Monteiro, et al., “An Efficient Chronic Unpredictable Stress Protocol to Induce Stress-Related Responses in C57BL/6 Mice,” Front Psychiatry. 2015; 6: 6 and in Mann et al., “Chronic social defeat, but not restrain stress, alters bladder function in mice” Physiol. Behav. 2015; Oct. 15; 150: 83-92.
# Generally, wild type (control) mice and PDE1B conditional knockout mice, as appropriate, are exposed to the chronic stress using restraint stress in shallow water model (RSSW) as described by Mann et al (2015), above. […] Control mice for these experiments are also maintained in single housing cages. In accordance the stress protocol, the mice are monitored for the depression-like behavior profile. Mice are then sacrificed and tissue samples are collected. […] Brain tissue and serum is analyzed for a panel of markers, including pro-inflammatory and anti-inflammatory cytokines and chemokines.
# C57Bl/6 mice are subjected to the CUS protocol (14d, as described) or sham treatment, evaluated for depression-like behaviors at a specified time points, and sacrificed for collection of blood (serum preparation) and brain collection. Serum is analyzed for corticosterone (CORT) levels and other inflammatory markers. The brain is analyzed for a panel of inflammatory markers by qPCR (mRNA) and MSD (protein).
# Mice are evaluated for depression-like behaviors at a specified time point to test the impact of the CUS protocol and of the PDE1 inhibitor treatment on the depression-like phenotype. […] Serum is analyzed for CORT levels and other inflammatory markers. Brain samples are analyzed for a panel for a panel of inflammatory markers by qPCR (mRNA) and MSD (protein). […]
# BV2 cells [5] = assay: Quantitative PCR of inflammatory cytokine mRNA in LPS-treated BV2 cells; type: cell-based, mouse; conditions: LPS 10 microgram/ml, Compound 214 10 microgram/ml, FIG. 2
# [6] = BV2 cells, 50 ng/ml LPS for 4 hours, 10 μM, FIG. 4b
# [7] = BV2 cells, Compound 214 at 10 μM, FIG. 4a
# [8] = Striatum Mouse + LPS, initial results
# [9] = adult mice, 10 mg/kg i.p., 500 μg/kg LPS s.c. for 2 hours, FIG. 8
# [10] = mouse striatum, 10 mg/kg i.p., LPS 500 μg/kg s.c., two hours, FIG. 7
smiles,measurement,setting,value
CN1C(=O)c2c(nn(Cc3ccc(-c4cccc(F)n4)cc3)c2Nc2ccccc2)N2C1=N[C@@H]1CCC[C@@H]12 [Compound 214],Chemokine (C-C) motif Ligand 2 expression (Q-PCR),"BV2 cells [1]; BV2 + LPS, initial results",Down
same,Interleukin 1 beta expression (Q-PCR),"BV2 cells [1]; BV2 + LPS, initial results",Down
same,Tumor necrosis factor expression (Q-PCR),"BV2 cells [1]; BV2 + LPS, initial results",Down
same,Ccl2 mRNA signal,BV2 cells [1]; [6],significantly decreased
same,IL1β mRNA signal,BV2 cells [1]; [6],trended downward
same,TNF mRNA signal,BV2 cells [1]; [6],significantly decreased
same,LPS-induced increase in expression of Ccl2,BV2 cells [1]; [7],significantly reduces
same,LPS-induced increase in expression of IL1β,BV2 cells [1]; [7],significantly reduces
same,LPS-induced increase in expression of TNFα,BV2 cells [1]; [7],significantly reduces
same,LPS-induced changes in proinflammatory markers,"BV2 cells [1]; BV2 cells, separate experiment, FIG. 4b, 50 ng/ml LPS for 4 hours",greatly reduces or blunts
same,LPS-induced increase in expression of IL1β in the hippocampus (mRNA),[2],suppresses; also recorded: significantly blunts
same,LPS-induced TNFα release,BV2 cells [3],dose-dependent inhibition
same,Chemokine (C-C) motif Ligand 2 expression (Q-PCR),[4]; [8],Down
same,Oncostatin M expression (Q-PCR),[4]; [8],Down
same,expression of Ccl2 mRNA in striatum,[4]; [9],attenuates
same,expression of TNF mRNA in striatum,[4]; [9],attenuates
same,levels of IL1-beta mRNA in striatum,[4]; [9],trended to lower levels
same,levels of IL6 mRNA in striatum,[4]; [9],trended to lower levels
same,"LPS stimulation of the pro-inflammatory cytokines TNFα, Ccl2, IL-1β, and IL-6",[4]; [10],inhibits
same,expression of the anti-inflammatory cytokine IL-10,[4]; [10],significantly enhance
same,LPS-induced inflammatory gene expression changes in mice,"[4]; striatal tissue, 10 mg/kg i.p., 2 hours, FIG. 8",prevents
same,effect on tissue and serum markers and behaviors in PDE1B KO mice,"C57Bl/6 mice; PDE1B KO mice, CUS",no significant effect
same,CUS-induced CNS and serum markers (proinflammatory),"C57Bl/6 mice; normal C57Bl/6 mice, CUS 14d",significantly suppresses
same,expression of depression-like behaviors,"C57Bl/6 mice; normal C57Bl/6 mice, CUS 14d",significantly suppresses
same,"LPS-induced increase in expression of IL1β (mRNA, quantitative PCR)",BV2 cells [5],suppresses; also recorded: significantly blunts
